# Measurements from patent publication US20220386611A1, “NOVEL HETEROARYL-TRIAZOLE COMPOUNDS AS PESTICIDES” (Bayer Aktiengesellschaft, priority 2019, published 2022).
# Key:
# Type in all cases: in vivo
# [1] = tested on: larvae of the southern green stink bug (Nezara viridula); assay: Nezara viridula spray test; conditions: 96 h, after 4 days, barley plants
# Protocol: Nezara viridula—Spray Test
# Solvent: 78.0 parts by weight of acetone • • 1.5 parts by weight of dimethylformamide
# (§1) Emulsifier: alkylarylpolyglycol ether
# (§2) To produce a suitable preparation of active compound, 1 part by weight of active compound is mixed with the stated amount of solvent, and the concentrate is diluted with water, containing an emulsifier concentration of 1000 ppm, to the desired concentration. Further test concentrations are prepared by dilution with emulsifier containing water.
# Barley plants (Hordeum vulgare) infested with larvae of the southern green stink bug (Nezara viridula) are sprayed with a test solution containing the desired concentration of the active ingredient.
# After 4 days mortality in % is determined. 100% means all the stink bugs have been killed; 0% means none of the stink bugs have been killed.
# [2] = tested on: green peach aphid (Myzus persicae); assay: Myzus persicae spray test; conditions: foliar, 120 h, after 5 days, Chinese cabbage leaf disks
# Protocol: Myzus persicae—spray test
# Solvent: 78.0 parts by weight acetone • 1.5 parts by weight dimethylformamide
# as §1
# as §2, with “solvents” for “solvent,”, “and” for “and the concentrate”
# Chinese cabbage (Brassica pekinensis) leaf disks infected with all instars of the green peach aphid (Myzus persicae), are sprayed with a preparation of the active ingredient of the desired concentration.
# (§3) After 5 days mortality in % is determined. 100% means all aphids have been killed and 0% means none of the aphids have been killed.
# [3] = tested on: Aedes aegypti strain MONHEIM; assay: Aedes aegypti test (AEDSAE surface treatment & contact assay); conditions: 24 hours after contact, read-out: efficacy (mortality); for mortality at 4 mg/m2: surface concentration 4 mg/m^2, 30 minutes exposure
# Protocol: Aedes Aegypti Test (AEDSAE Surface Treatment & Contact Assay)
# (§4) Solvent: Aceton+2000 ppm rapeseed oil methyl ester (RME)
# (§5) In order to produce a sufficient, active ingredient containing solution it is necessary to solve the test compound in the solvent-mix (acetone at 2 mg/ml/RME 2000 ppm). This solution is pipetted onto a glazed tile and after evaporation of the acetone, adult mosquitoes of the species Aedes aegypti strain MONHEIM are placed onto the dried surface. The exposure time is 30 minutes. Mortality in percent (%) is determined 24 hours after contact of the insects to the treated surface. 100% mortality means that all tested insects are dead, whereas 0% means that no insect died.
# [4] = tested on: adult unfed cat fleas (Ctenocephalides felis); assay: Ctenocephalides felis oral test; conditions: 48 h
# Protocol: Ctenocephalides felis—Oral Test
# (§6) Solvent: dimethyl sulfoxide
# To produce a suitable preparation of active compound, 10 mg of active compound are dissolved in 0.5 ml solvent, and the concentrate is diluted with cattle blood to the desired concentration.
# Approximately 20 adult unfed cat fleas (Ctenocephalides felis) are placed in flea chambers. The blood chamber, sealed with parafilm on the bottom, are filled with cattle blood supplied with compound solution and placed on the gauze covered top of the flea chamber, so that the fleas are able to suck the blood. The blood chamber is heated to 37° C. whereas the flea chamber is kept at room temperature.
# After 2 days mortality in % is determined. 100% means all the fleas have been killed; 0% means none of the fleas have been killed.
# [5] = tested on: adult brown dog ticks (Rhipicephalus sanguineus); assay: Rhipicephalus sanguineus in-vitro contact test with adult brown dog ticks; conditions: 5 μg/cm^2 (=500 g/ha), after 48 hours, read-out: efficacy (ticks dead or moribund)
# Protocol: Rhipicephalus sanguineus—In-Vitro Contact Tests with Adult Brown Dog Ticks
# (§7) 9 mg compound is solved in 1 mL acetone and diluted with acetone to the desired concentration. 250 μL of the test solution is filled in 25 mL glass test tubes and homogeneously distributed on the inner walls by rotation and tilting on a shaking device (2 h at 30 rpm). With a compound concentration of 900 ppm, an inner surface of 44.7 cm^2 and a homogeneous distribution, a dose of 5 μg/cm^2 is achieved.
# After the solvent has evaporated, each test tube is filled with 5-10 adult brown dog ticks (Rhipicephalus sanguineus), closed with a perforated lid and incubated in a lying position at room temperature and relative humidity. After 48 hours efficacy is determined. The ticks are patted on the ground of the tubes and are incubated on a heating plate at 45-50° C. for at most 5 minutes. Immotile or uncoordinated moving ticks, which are not able to escape the heat by climbing upwards, are marked as dead or moribund.
# An efficacy of 100% means all ticks are dead or moribund; 0% means no ticks are dead or moribund.
# [6] = tested on: adult engorged female ticks (Rhipicephalus microplus); assay: Rhipicephalus (Boophilus) microplus injection test; conditions: 168 h, 4 μg/animal, after 7 days, read-out: efficacy (infertile eggs)
# Protocol: Rhipicephalus (Boophilus) microplus—Injection Test
# as §6
# To produce a suitable preparation of active compound, 10 mg of active compound are dissolved in 0.5 mL solvent, and the concentrate is diluted with solvent to the desired concentration.
# Five adult engorged female ticks (Rhipicephalus microplus) are injected with 1 μL compound solution into the abdomen. The ticks are transferred into replica plates and incubated in a climate chamber.
# After 7 days egg deposition of fertile eggs is monitored. Eggs where fertility is not visible are stored in a climate chamber till hatching after about 42 days. An efficacy of 100% means all eggs are infertile; 0% means all eggs are fertile.
# [7] = tested on: Rhipicephalus microplus larvae (strain Parkhurst, resistant against synthetic pyrethroids); assay: Rhipicephalus (Boophilus) microplus in-vitro contact test, larval cattle tick; conditions: 5 μg/cm^2 (=500 g/ha), after 48 hours, read-out: efficacy (larvae dead or moribund)
# Protocol: Rhipicephalus (Boophilus) Microplus—In-Vitro Contact Tests Larval Cattle Tick (Strain Parkhurst, Resistant Against Synthetic Pyrethroids)
# as §7
# After the solvent has evaporated, each test tube is filled with 20-50 cattle tick larvae (Rhipicephalus microplus), closed with a perforated lid and incubated in a horizontal position at 85% relative humidity and 27° C. in an incubator. After 48 hours efficacy is determined. The larvae are patted on the ground of the tubes and negative geotactic behaviour is recorded.
# An efficacy of 100% means all larvae are dead or moribund; 0% means no larvae are dead or moribund.
# [8] = tested on: green peach aphid (Myzus persicae); assay: Myzus persicae oral test; conditions: 120 h
# Protocol: Solvent: 100 parts by weight acetone
# To produce a suitable preparation of active compound, 1 part by weight of active compound is mixed with the stated amount of solvent, and the concentrate is diluted with water to the desired concentration. 50 μL compound solution is filled in microtiter plates and 150 μL IPL41 insect medium (33%+15% sugar) is added to obtain a total volume of 200 μL per well. Afterwards the plates are sealed with parafilm through which a mixed population of the green peach aphid (Myzus persicae) can suck on the compound preparation.
# as §3
# [9] = tested on: Anopheles funestus strain FUMOZ-R; assay: Anopheles funestus test (ANPHFU surface treatment & contact assay); conditions: surface concentration 20 mg/m^2, 30 minutes exposure, 24 hours after contact, read-out: efficacy (mortality)
# Protocol: Anopheles funestus Test (ANPHFU Surface Treatment & Contact Assay)
# as §4
# as §5, with “Anopheles funestus” for “Aedes aegypti”, “FUMOZ-R (Hunt et al., Med. Vet. Entomol. 2005 September; 19(3): 271-275)” for “MONHEIM”
# [10] = tested on: larvae of the banded cucumber beetle (Diabrotica balteata); assay: Diabrotica balteata spray test; conditions: 168 h, 100 g/ha (=32 μg/well), after 7 days, wheat seeds, read-out: efficacy (seedlings grown like untreated, uninfected control)
# Protocol: Diabrotica balteata—spray test
# Solvent: 78.0 parts by weight of acetone
# 1.5 parts by weight of dimethylformamide
# as §1, §2
# Soaked wheat seeds (Triticum aestivum) are placed in a multiple well plate filled with agar and some water and are incubated for 1 day to germinate (5 seeds per well). The germinated wheat seeds are sprayed with a test solution containing the desired concentration of the active ingredient. Afterwards each unit is infected with 10-20 larvae of the banded cucumber beetle (Diabrotica balteata).
# After 7 days efficacy in % is determined. 100% means all the seedlings have grown up like in the untreated, uninfected control; 0% means none of the seedlings have grown.
# [11] = tested on: adult cat fleas (Ctenocephalides felis); assay: Ctenocephalides felis in-vitro contact test, adult cat flea; conditions: after 48 hours, read-out: efficacy (fleas dead or moribund)
# Protocol: as §7, with “Ctenocephalides felis—In-Vitro Contact Tests Adult Cat Flea 9 mg” for “9 mg”
# After the solvent has evaporated, each test tube is filled with 5-10 adult cat fleas (Ctenocephalidesfelis), closed with a perforated lid and incubated in a lying position at room temperature and relative humidity.
# After 48 hours efficacy is determined. The fleas are patted on the ground of the tubes and are incubated on a heating plate at 45-50° C. for at most 5 minutes. Immotile or uncoordinated moving fleas, which are not able to escape the heat by climbing upwards, are marked as dead or moribund.
# An efficacy of 100% means all fleas are dead or moribund; 0% means no fleas are dead or moribund.
Structure (SMILES),mortality at 100 g/ha [1],mortality at 100 g/ha [2],mortality at 4 mg/m2 [3],"mortality at 20 mg/m2 ([3]; surface concentration 20 mg/m^2, 30 minutes exposure)",mortality at 100 ppm [4],"pest or weed control at 5 µg/cm2, 500 g/ha [5]",pest or weed control at 0.004 mg [6],pest or weed control at 5 µg/cm2 [7],mortality at 4 ppm [8],mortality at 20 mg/m2 [9],"pest or weed control at 32 µg/disc, 100 g/ha [10]","pest or weed control at 1 µg/cm2, 100 g/ha ([11]; 1 μg/cm^2 (=100 g/ha))","pest or weed control at 5 µg/cm2, 500 g/ha ([11]; 5 μg/cm^2 (=500 g/ha))"
CC(NC(=O)c1cncc(C(F)(F)F)c1)c1nc(Cl)nn1-c1ncccn1 (stereo not shown) [Example I-007],90%,90%,80 to 100%,80 to 100%,100%,100%,100%,100%,90%,80 to 100%,,,
CC(NC(=O)c1cc(Cl)nc(C(F)(F)F)c1)c1nc(Cl)nn1-c1ncccn1 (stereo not shown) [Example I-008],100%,,80 to 100%,,100%,100%,100%,100%,,,80%,90%,90%
